Data set [1] concerns KB (human epidermoid carcinoma). Description: Cytotoxicity assay, KB. The conditions noted are these: 48 h, read-out: IC50 KB. The class given is cell-based.
The test system of data set [2] is P. falciparum Sierra Leone D6 (chloroquine-sensitive). Description: Antimalarial/parasite LDH assay, D6 clone. The class given is cell-based. To be noted: Plasmodium falciparum, D6, 72 h, read-out: P. falciparum D6 IC50.
Data set [3] concerns Mycobacterium intracellulare ATCC 23068. Description: Antimicrobial assay, M. intracellulare. The format is cell-based. The conditions noted are these: for MIC: ATCC23068, read-out: MIC, M. intracellulare.
The test system of data set [4] is P. berghei (NK-65 strain). Description: In vivo antimalarial assay.
Another data set deals with RBC. Description: Hemolytic activity. To be noted: from IC50 (RBC lysis).
Data set [5] has as its system methicillin-resistant Staphylococcus aureus ATCC 43300. In words: Antimicrobial assay, MRSA. The class given is cell-based. The conditions noted are these: ATCC43300|MRSA; for MBC: read-out: MBC, MRSA; for MIC: read-out: MIC, MRSA.
Data set [6] concerns SK-MEL (human malignant melanoma). In words: Cytotoxicity assay, SK-MEL. The format is cell-based. To be noted: 48 h, read-out: IC50 SK-MEL.
In data set [7] the test system is Candida albicans ATCC 90028. Description: Antimicrobial assay, C. albicans. To be noted: ATCC90028, read-out: IC50, C. albicans. The class given is cell-based.
The test system of data set [8] is L. donovani promastigotes. Description: Antileishmanial assay. To be noted: Leishmania donovani, 48 h, read-out: L. donovani IC50. The format is cell-based.
For data set [9], the system named is Aspergillus fumigatus ATCC 90906. In words: Antimicrobial assay, A. fumigatus. The class given is cell-based. To be noted: ATCC90906, read-out: IC50, A. fumigatus.
Data set [10] concerns Cryptococcus neoformans ATCC 90113. Description: Antimicrobial assay, C. neoformans. The format is cell-based.

The term IC50 denotes the midpoint of a concentration-inhibition curve. The term MIC denotes the smallest concentration in the dilution series that meets the test's criterion for growth inhibition. The term MBC denotes the lowest tested concentration that kills the bacteria rather than only halting them.

In brackets after ≈: the same amount, converted by molar mass. Some results are limits rather than exact numbers.

With `C[C@@H]1[C@H](O)[C@@H](C)/C=C/C=C/C=C/C=C/C=C/C=C/C=C/[C@H](O[C@@H]2O[C@H](C)[C@@H](O)[C@H](N)[C@@H]2O)C[C@@H]2O[C@](O)(C[C@@H](O)C[C@@H](O)[C@H](O)CC[C@@H](O)C[C@@H](O)CC(=O)O[C@H]1C)C[C@H](O)[C@H]2C(=O)O` [Amphotericin B], in [1], the half-inhibitory concentration (IC50) is more than 25 µg/mL.
As to `CCN(CC)CCCC(C)Nc1ccnc2cc(Cl)ccc12` (stereo not drawn) [Chloroquine, chloroquine, reference compound], the IC50 in [2] was determined as 0.017 µg/mL (≈ 0.0531 µM).
Regarding `O=C(O)c1cn(C2CC2)c2cc(N3CCNCC3)c(F)cc2c1=O` [Ciprofloxacin, reference compound], the half-maximal inhibitory concentration (IC50) in [3] (ATCC23068, read-out: IC50, M. intracellulare) was 0.25 µg/mL (≈ 0.754 µM).
Take `C[C@@H]1N[C@H](CCCCCCCCCCc2cc(CCCCCCCCCC[C@@H]3CC[C@H](O)[C@@H](C)N3)c3[n+](c2)CCC3)CC[C@H]1O.[Cl-]` [Compound 1]: the minimal inhibitory concentration (MIC) in data set [3] amounted to 2.5 µg/mL. Also, the “Cure (mice without parasitemia till day 28/total mice in group)” value in data set [4] (1 mg/kg × 3 days, ip) is 0/5; in data set [4] (2 mg/kg × 3 days, ip), 0/5. Besides, in data set [4] (1 and 2 mg/Kg/day for 3 days, ip, mice), the “toxicity observed due to treatment” value is recorded as “no significant toxicity”. Also, in the data set on RBC, the “fold less toxic than amphotericin B in regard to hemolytic activity” value is on record as more than 4 fold.
For the compound `C[C@@H]1N[C@H](CCCCCCCCCCC2=C[C@@H](CCCCCCCCCC[C@@H]3CC[C@@H](O)[C@H](C)N3)[C@@H]3CCCN3C2)CC[C@H]1O` [Compound 2, 6,8-bis-[(2R,5R,6R)-5-hydroxy-6-methylpiperidin-2-yl]decyl-[8R,8aS]-6,7-dehydroindolizidine], in [5], the MBC came out at 10 µg/mL (≈ 15.9 µM) and the minimum inhibitory concentration (MIC) is 2.5 µg/mL (≈ 3.97 µM). For the same compound, in data set [3], the MIC worked out at 5 µg/mL (≈ 7.94 µM). Further, in data set [6], the IC50 is less than 1.1 µg/mL.
Consider `C[C@H]1N[C@@H](CCCCCCCCCCC2=C[C@@H](CCCCCCCCCC[C@@H]3CC[C@H](O)[C@@H](C)N3)[C@@H]3CCCN3C2)CC[C@H]1O` [Compound 3, Isoprosopilosine], for which the results for the IC50 in data set [7] and in [6] were more than 20 µg/mL and less than 1.1 µg/mL, respectively. The minimum inhibitory concentration (MIC) in data set [3] is 5 µg/mL (≈ 7.94 µM).
For the compound `C[C@@H]1N[C@H](CCCCCCCCCCc2cc(CCCCCCCCCC[C@H]3CC[C@@H](O)[C@@H](C)N3)c[n+]3c2CCC3)CC[C@H]1O` [Compound 4, Isoprosopilosidine], the half-maximal inhibitory concentration (IC50) was more than 20 µg/mL in data set [7], 0.042 µg/mL in data set [2] and 0.8 µg/mL in data set [8].
For `C[C@H]1N[C@@H](CCCCCCCCCCC2=C[C@@H](CCCCCCCCCC[C@H]3CC[C@@H](O)[C@@H](C)N3)[C@@H]3CCCN3C2)CC[C@H]1O` [Compound 5, juliprosopine], the IC50 in [7] is more than 20 µg/mL. Moreover, in data set [3] (ATCC23068, read-out: MBC, M. intracellulare), the minimal bactericidal concentration (MBC) was found to be 20 µg/mL (≈ 31.7 µM). For the same compound, the minimum inhibitory concentration (MIC) in data set [3] was 20 µg/mL (≈ 31.7 µM).
With `C[C@@H]1N[C@H](CCCCCCCCCCc2cc(CCCCCCCCCC[C@@H]3CC[C@@H](O)[C@H](C)N3)c3[n+](c2)CCC3)CC[C@H]1O.[Cl-]` [Compound 6, Prosopilosidine dihydrochloride], the MBC in data set [5] was found to be 5 µg/mL. In addition, the IC50 in data set [9] was more than 20 µg/mL.
For the compound `C[C@@H]1N[C@H](CCCCCCCCCCC2=C[C@@H](CCCCCCCCCC[C@@H]3CC[C@@H](O)[C@H](C)N3)[C@@H]3CCCN3C2)CC[C@H]1O.Cl.Cl` [Compound 7, Prosopilosine dihydrochloride], the half-maximal inhibitory concentration (IC50) in [7] was more than 20 µg/mL; in [9] it was more than 20 µg/mL; in data set [8], 3.1 µg/mL. Further, in [10] (ATCC90113, read-out: MFC, C. neoformans), the MFC stood at 5 µg/mL. Also, the minimum inhibitory concentration (MIC) is 5 µg/mL in data set [10] (ATCC90113, read-out: MIC, C. neoformans) and 5 µg/mL in [5]. For the same compound, the MBC in data set [5] was 5 µg/mL.
As to `C[C@H]1N[C@@H](CCCCCCCCCCC2=C[C@@H](CCCCCCCCCC[C@@H]3CC[C@H](O)[C@@H](C)N3)[C@@H]3CCCN3C2)CC[C@H]1O.Cl.Cl` [Compound 8, Isoprosopilosine dihydrochloride], in data set [5], the MBC amounted to 5 µg/mL and the MIC stood at 5 µg/mL.
As for `CCO[C@H]1O[C@@H]2O[C@@]3(C)CC[C@H]4[C@H](C)CC[C@@H]([C@H]1C)[C@@]24OO3` [β-Arteether, β-arteether, reference compound], the “Cure (mice without parasitemia till day 28/total mice in group)” value in data set [4] (10 mg/kg × 3 days) is 5/5.

Source of the values: publication PMC3715121 (Journal of natural products, 2009).
